Columns and labels:
Format in all cases: cell-based
[1] = tested on: Human Rhinovirus 14 (HRV14) in H1-HeLa cells; test: H1-HeLa HRV-CTG 384-well Assay (Ex. Y), HRV14; details: Rhinovirus B, 96 h; H1-HeLa cells, HRV14 MOI 1.0, 4 days, Celltiter-Glo; read-out: EC50 H1-HeLa_HRV14_HRV-CTG 384-well Assay (per Ex Y)
Source text: (§1) Example Y: H1-HeLa HRV-CTG 384-well Assay
(§2) H1-Hela cell line (ATCC, Manassas, VA, Cat #CRL-1958) was maintained in Dulbecco's […] (DMEM) (Corning, New York, NY, Cat #15-018CM) supplemented with 10% fetal bovine serum (FBS) (Hyclone, Logan, UT, Cat #SH30071-03), and 1× Penicillin-Streptomycin-L-Glutamine (Corning, New York, NY, Cat #30-009-CI). Cells were passaged 2 times per week to maintain sub-confluent densities and were used for experiments at passage 5-30. The Human Rhinovirus 1B (HRV1B) (ATCC, Manassas, VA, Cat #VR-1645) , Human Rhinovirus 14 (HRV14) (ATCC, Manassas, VA, Cat #VR-284), and Human Rhinovirus 16 (HRV16) (ATCC, Manassas, VA, Cat #BR-283) was obtained through ATCC. Viral infection was monitored by determining viability of H1-HeLa cells as described below.
(§3) Test molecules are prepared in 100% DMSO in 384-well polypropylene plates (Greiner, Monroe, NC, Cat #784201) with 8 compounds per plate in grouped replicates of 4 at 10 serially diluted concentrations (1:3). The serially diluted compounds were transferred to low dead volume Echo plates (Labcyte, Sunnyvale, CA, Cat #LP-0200).
(§4) The test compounds were spotted to 384-well assay plates (Greiner, Monroe, NC, Cat#781091) at 200 nL per well using an Echo acoustic dispenser (Labcyte, Sunnyvale, CA). H1-HeLa cells were harvested and suspended in DMEM (supplemented with 2% FBS and 1× Penicillin-Streptomycin-L-Glutamine) and seeded to the pre-spotted assay plates at 5,000 cells per well in 30 μL. HRV1B, HRV14, and HRV16 was diluted in DMEM (supplemented with 2% FBS and 1× Penicillin-Streptomycin-L-Glutamine) at 97.1 million Infectious Units (IU) per mL, 151 million IU per mL and 221 million IU per mL respectively. 10 μL of virus per well was added to the assay plates containing cells and compounds, for an MOI of 0.5, 1.0, and 0.25 respectively. The assay plates were incubated for 4 days at 37° C. and 5% CO2. At the end of incubation, Celltiter-Glo (Promega, Madison, WI, Cat #(Ga7573) was prepared. The assay plates and Celltiter-Glo reagent were equilibrated to room temperature for at least 15 minutes. 40 μL per well of Celltiter-Glo reagent was added and the plates were incubated at room temperature for 15 minutes before reading the luminescence signal on an EnVision multimode plate reader (Perkin Elmer, Waltham, MA). Rupintrivir was used as positive control and DMSO was used as negative control. Values were normalized to the positive and negative controls (as 0% and 100% replication, respectively) and data was fitted using non-linear regression analysis by Gilead's dose response tool. The EC50 value for each compound was defined as the concentration reducing viral replication by 50%.

[2] = tested on: Human Rhinovirus 1B (HRV1B) in H1-HeLa cells; test: H1-HeLa HRV-CTG 384-well Assay (Ex. Y), HRV1B; details: Rhinovirus A, 96 h; H1-HeLa cells, HRV1B MOI 0.5, 4 days, Celltiter-Glo; read-out: EC50 H1-HeLa_HRV1B_HRV-CTG 384-well Assay (per Ex. Y)
Source text: as §1, §2, §3, §4

[3] = tested on: Respiratory syncytial virus recombinant with luciferase (RSV-Luc5) in HEp-2 cells; test: HEp-2 RSV-Luc5 384-well Assay (EC50 RSVFLUC Hep2-384 v2, Ex. V); details: human respiratory syncytial virus, HEp-2, 72 h, read-out: EC50 RSV FLuc Hep-2 384 V2 (per Ex. V)
Source text: Example V: HEp-2 RSV-Luc5 384-well Assay (EC50 RSVFLUC Hep2-384 v2)
HEp-2 cell line was purchased from ATCC (Manassas, VA Cat #CCL-23) and maintained in Dulbecco's […] (DMEM) (Corning, New York, NY, Cat #15-018CM) supplemented with 10% fetal bovine serum (FBS) (Hyclone, Logan, UT, Cat #SH30071-03) and 1× Penicillin-Streptonycin-L-Glutamine (Corning, New York, NY, Cat #30-009-CI). Cells were passaged 2 times per week to maintain sub-confluent densities and were used for experiments at passage 5-20. Respiratory syncytial virus recombinant with luciferase (RSV-Luc5) (≥1 ×107 TCID50/ml) was purchased from Microbiologics (Saint Cloud, MN). Viral replication was determined in HEp-2 cells in the following manner.
as §3, with “Compounds” for “Test molecules”
The test compounds were spotted to 384-well assay plates (Greiner, Monroe, NC, Cat#781091) at 200 nL per well. HEp-2 cells were harvested and suspended in DMEM (supplemented with 10% FBS and 1× Penicillin-Streptonycin-L-Glutamine) and seeded to the pre-spotted assay plates at 4,000 cells per well in 30 μL. RSV-Luc5 viruses were diluted in DMEM (supplemented with 10% FBS and 1× Penicillin-Streptomycin-L-Glutamine) at 200,000 Infectious Units (IU) per mL and 10 μL per well was added to the assay plates containing cells and compounds, for an MOI=0.5. The assay plates were incubated for 3 days at 37° C. and 5% CO2. At the end of incubation, One-Glo reagent (Promega, Madison, WI, Cat #E6120) was prepared. The assay plates and One-Glo reagent were equilibrated to room temperature for at least 15 minutes. 40 μL per well of One-Glo reagent was added and the plates were incubated at room temp for 15 minutes before reading the luminescence signal on an EnVision multimode plate reader (Perkin Elmer, Waltham, MA). Remdesivir was used as positive control and DMSO was used as negative control. Values were normalized to the positive and negative controls (as 0% and 100% replication, respectively) and data was fitted using non-linear regression analysis by Gilead's dose response tool. The EC50 value for each compound was then determined as the concentration reducing the viral replication by 50%.

[4] = tested on: Human Rhinovirus 16 (HRV16) in H1-HeLa cells; test: H1-HeLa HRV-CTG 384-well Assay (Ex. Y), HRV16; details: Rhinovirus A, 96 h; H1-HeLa cells, HRV16 MOI 0.25, 4 days, Celltiter-Glo; read-out: EC50 H1-HeLa_HRV16_HRV-CTG 384-well Assay (per Ex. Y)
Source text: as §1, §2, §3, §4

`CC(C)C(=O)OC[C@@]1(C#N)O[C@@H](c2ccc3c(N)ncnn23)[C@H](O)[C@@H]1O` [Compound 1, ((2R,3S,4R,5S)-5-(4-aminopyrrolo[2,1-f][1,2,4]triazin-7-yl)-2-cyano-3,4-dihydroxytetrahydrofuran-2-yl)methyl isobutyrate] gave an EC50 [1] of 5.13 µM, an EC50 [2] of 3.05 µM and an EC50 [3] of 15 µM. It also gave an EC50 [4] of 9.31 µM.
`N#C[C@]1(COC(=O)c2ccccc2)O[C@@H](c2ccc3c(N)ncnn23)[C@H](O)[C@@H]1O` [Compound 2, ((2R,3S,4R,5S)-5-(4-aminopyrrolo[2,1-f][1,2,4]triazin-7-yl)-2-cyano-3,4-dihydroxytetrahydrofuran-2-yl)methyl benzoate] was tested, and the EC50 [1] was 23.9 µM, the EC50 [2] was 9.6 µM and the EC50 [3] was 36.8 µM. It also gave an EC50 [4] of 28.3 µM.
`CC(C)CC(=O)OC[C@@]1(C#N)O[C@@H](c2ccc3c(N)ncnn23)[C@H](O)[C@@H]1O` [Compound 3, ((2R,3S,4R,5S)-5-(4-aminopyrrolo[2,1-f][1,2,4]triazin-7-yl)-2-cyano-3,4-dihydroxytetrahydrofuran-2-yl)methyl 3-methylbutanoate] showed an EC50 [1] of 9.33 µM, an EC50 [2] of 8.84 µM and an EC50 [3] of 26.4 µM. It also gave an EC50 [4] of 13.2 µM.
`CC(=O)OC[C@@]1(C#N)O[C@@H](c2ccc3c(N)ncnn23)[C@H](O)[C@@H]1O` [Compound 4, ((2R,3S,4R,5S)-5-(4-aminopyrrolo[2,1-f][1,2,4]triazin-7-yl)-2-cyano-3,4-dihydroxytetrahydrofuran-2-yl)methyl acetate] was tested, and the EC50 [1] was 4.61 µM, the EC50 [2] was 6.38 µM and the EC50 [3] was 15.7 µM. For the same compound, the EC50 [4] was 10.1 µM.
In the case of `CCC(=O)OC[C@@]1(C#N)O[C@@H](c2ccc3c(N)ncnn23)[C@H](O)[C@@H]1O` [Compound 5, ((2R,3S,4R,5S)-5-(4-aminopyrrolo[2,1-f][1,2,4]triazin-7-yl)-2-cyano-3,4-dihydroxytetrahydrofuran-2-yl)methyl propionate], the EC50 [1] is reported as 10.5 µM, the EC50 [2] is reported as 8.49 µM and the EC50 [3] is reported as 20 µM. For the same compound, the EC50 [4] was 9.84 µM.
`CCCC(=O)OC[C@@]1(C#N)O[C@@H](c2ccc3c(N)ncnn23)[C@H](O)[C@@H]1O` [Compound 6, ((2R,3S,4R,5S)-5-(4-aminopyrrolo[2,1-f][1,2,4]triazin-7-yl)-2-cyano-3,4-dihydroxytetrahydrofuran-2-yl)methyl butyrate] showed an EC50 [1] of 7.86 µM, an EC50 [2] of 4.11 µM and an EC50 [3] of 16.8 µM. The EC50 [4] was 8.23 µM.
Work on `N#C[C@]1(COC(=O)C2CC2)O[C@@H](c2ccc3c(N)ncnn23)[C@H](O)[C@@H]1O` [Compound 7, ((2R,3S,4R,5S)-5-(4-aminopyrrolo[2,1-f][1,2,4]triazin-7-yl)-2-cyano-3,4-dihydroxytetrahydrofuran-2-yl)methyl cyclopropanecarboxylate] yielded an EC50 [1] of 27.1 µM, an EC50 [2] of 11.4 µM and an EC50 [3] of 50 µM. It also gave an EC50 [4] of 30.7 µM.
For `N#C[C@]1(COC(=O)C2CCC2)O[C@@H](c2ccc3c(N)ncnn23)[C@H](O)[C@@H]1O` [Compound 8, ((2R,3S,4R,5S)-5-(4-aminopyrrolo[2,1-f][1,2,4]triazin-7-yl)-2-cyano-3,4-dihydroxytetrahydrofuran-2-yl)methyl cyclobutanecarboxylate], the EC50 [1] was 5.66 µM, the EC50 [2] was 3.34 µM and the EC50 [3] was 14.9 µM. It also gave an EC50 [4] of 7.74 µM.
In the case of `CCC(CC)C(=O)OC[C@@]1(C#N)O[C@@H](c2ccc3c(N)ncnn23)[C@H](O)[C@@H]1O` [Compound 9, ((2R,3S,4R,5S)-5-(4-aminopyrrolo[2,1-f][1,2,4]triazin-7-yl)-2-cyano-3,4-dihydroxytetrahydrofuran-2-yl)methyl 2-ethylbutanoate], the EC50 [1] is reported as 15.5 µM, the EC50 [2] is reported as 21.6 µM and the EC50 [3] is reported as 28.9 µM. For the same compound, the EC50 [4] was 35.1 µM.
In the case of `CC(C)(C)C(=O)OC[C@@]1(C#N)O[C@@H](c2ccc3c(N)ncnn23)[C@H](O)[C@@H]1O` [Compound 10, ((2R,3S,4R,5S)-5-(4-aminopyrrolo[2,1-f][1,2,4]triazin-7-yl)-2-cyano-3,4-dihydroxytetrahydrofuran-2-yl)methyl pivalate], the EC50 [1] is reported as 10.9 µM, the EC50 [2] is reported as 9.77 µM and the EC50 [3] is reported as 21.8 µM. For the same compound, the EC50 [4] was 14.3 µM.
For `CCC(CC)C(=O)Nc1ncnn2c([C@@H]3O[C@](C#N)(COC(=O)C(CC)CC)[C@@H](O)[C@H]3O)ccc12` [Compound 11, ((2R,3S,4R,5S)-2-cyano-5-(4-(2-ethylbutanamido)pyrrolo[2,1-f][1,2,4]triazin-7-yl)-3,4-dihydroxytetrahydrofuran-2-yl)methyl 2-ethylbutanoate], the EC50 [1] was 50 µM, the EC50 [2] was 50 µM and the EC50 [3] was 41.5 µM. It also gave an EC50 [4] of 50 µM.
Work on `CC(C)[C@H](N)C(=O)OC[C@@]1(C#N)O[C@@H](c2ccc3c(N)ncnn23)[C@H](O)[C@@H]1O` [Compound 12, ((2R,3S,4R,5S)-5-(4-aminopyrrolo[2,1-f][1,2,4]triazin-7-yl)-2-cyano-3,4-dihydroxytetrahydrofuran-2-yl)methyl L-valinate] yielded an EC50 [1] of 6 µM, an EC50 [2] of 6.5 µM and an EC50 [3] of 19.2 µM. It also gave an EC50 [4] of 8.82 µM.
In the case of `CC(C)(C)CC(=O)OC[C@@]1(C#N)O[C@@H](c2ccc3c(N)ncnn23)[C@H](O)[C@@H]1O` [Compound 13, ((2R,3S,4R,5S)-5-(4-aminopyrrolo[2,1-f][1,2,4]triazin-7-yl)-2-cyano-3,4-dihydroxytetrahydrofuran-2-yl)methyl 3,3-dimethylbutanoate], the EC50 [1] is reported as 50 µM, the EC50 [2] is reported as 50 µM and the EC50 [3] is reported as 50 µM. The EC50 [4] was 50 µM.
